According to publication PMC9516332 (Frontiers in Oncology, 2022):
Like-named read-outs stand apart in the source and are kept apart here.

Test system: 134 cancer cell lines
Assay: Cell viability assay (ATPlite, 72 hours), IC50 on cancer cell line panel

- IC50 (Homo sapiens, MKN-45, read-out: IC50 in cell proliferation assay, MKN45 cell line (MET amplification)): > 31.6 µM
- IC50 (Homo sapiens, MOLM-13, read-out: IC50 in cell proliferation assay, MOLM-13 cell line (FLT3 ITD)): 0.123 µM
- IC50 (Homo sapiens, MOLT-4, read-out: IC50 in cell proliferation assay, MOLT-4 cell line): 1.67 µM
- IC50 (Homo sapiens, MV4-11, read-out: IC50 in cell proliferation assay, MV4-11 cell line (FLT3 ITD)): 0.167 µM
- IC50 (Homo sapiens, MeWo, read-out: IC50 in cell proliferation assay, MeWo cell line): 5.53 µM
- IC50 (Homo sapiens, NCCIT, read-out: IC50 in cell proliferation assay, NCC-IT cell line): 1.58 µM
- IC50 (Homo sapiens, NCI-H82, read-out: IC50 in cell proliferation assay, cell line NCI-H82): 3.23 µM
- IC50 (Homo sapiens, NCI-H460, read-out: IC50 in cell proliferation assay, NCI-H460 cell line): 4.27 µM
- IC50 (Homo sapiens, NCI-H661, read-out: IC50 in cell proliferation assay, NCI-H661 cell line): 8.68 µM
- IC50 (Homo sapiens, NCI-H716, read-out: IC50 in cell proliferation assay, cell line NCI-H716 (FGFR2-COL14A1)): 0.262 µM
- IC50 (Homo sapiens, NCI-H1650, read-out: IC50 in cell proliferation assay, NCI-H1650 cell line (EGFR exon19del)): 7.36 µM
- IC50 (Homo sapiens, NCI-H1975, read-out: IC50 in cell proliferation assay, NCI-H1975 cell line (EGFR p.L858R + p.T790M)): 22.4 µM
- IC50 (Homo sapiens, NCI-H2228, read-out: IC50 in cell proliferation assay, NCI-H2228 cell line (EML4-ALK)): 10.2 µM
- IC50 (Homo sapiens, OVCAR-3, read-out: IC50 in cell proliferation assay, cell line OVCAR-3): 5.67 µM
- IC50 (Homo sapiens, PFSK-1, read-out: IC50 in cell proliferation assay, cell line PFSK-1): > 31.6 µM
- IC50 (Homo sapiens, RL95-2, read-out: IC50 in cell proliferation assay, cell line RL95-2 (EGFR p.A289V)): 2.28 µM
- IC50 (Homo sapiens, RPMI-7951, read-out: IC50 in cell proliferation assay, cell line RPMI-7951 (BRAF p.V600E)): 5.59 µM
- IC50 (Homo sapiens, RS4-11, read-out: IC50 in cell proliferation assay, cell line RS4;11): 1.63 µM
- IC50 (Homo sapiens, Rec1, read-out: IC50 in cell proliferation assay, cell line REC-1): 7.32 µM
- IC50 (Homo sapiens, SHP77, read-out: IC50 in cell proliferation assay, cell line SHP-77): 8.18 µM
- IC50 (Homo sapiens, SK-BR-3, read-out: IC50 in cell proliferation assay, cell line SK-BR-3 (ERBB2 amplification)): 22.6 µM
- IC50 (Homo sapiens, SK-N-AS, read-out: IC50 in cell proliferation assay, cell line SK-N-AS): 3.81 µM
- IC50 (Homo sapiens, SK-N-FI, read-out: IC50 in cell proliferation assay, cell line SK-N-FI): 4 µM
- IC50 (Homo sapiens, SK-N-MC, read-out: IC50 in cell proliferation assay, cell line SK-N-MC): 3.28 µM
- IC50 (Homo sapiens, SK-N-SH, read-out: IC50 in cell proliferation assay, cell line SK-N-SH (ALK p.F1174L)): 2.59 µM
- IC50 (Homo sapiens, SNU-5, read-out: IC50 in cell proliferation assay, cell line SNU-5 (MET amplification)): > 31.6 µM
- IC50 (Homo sapiens, SNU-16, read-out: IC50 in cell proliferation assay, cell line SNU-16 (FGFR2 amplification)): 0.304 µM
- IC50 (Homo sapiens, SNU-C2B, read-out: IC50 in cell proliferation assay, cell line SNU-C2B (EGFR p.R165Q)): > 31.6 µM
- IC50 (Homo sapiens, SU-DHL-1, read-out: IC50 in cell proliferation assay, cell line SU-DHL-1 (NPM1-ALK)): 2.76 µM
- IC50 (Homo sapiens, SU-DHL-6, read-out: IC50 in cell proliferation assay, cell line SU-DHL-6): 4.61 µM
- IC50 (Homo sapiens, SUP-T1, read-out: IC50 in cell proliferation assay, cell line SUP-T1): 2.33 µM
- IC50 (Homo sapiens, SW48, read-out: IC50 in cell proliferation assay, cell line SW48 (EGFR p.G719S)): 2.74 µM
- IC50 (Homo sapiens, SW480, read-out: IC50 in cell proliferation assay, cell line SW480): 4.03 µM
- IC50 (Homo sapiens, SW626, read-out: IC50 in cell proliferation assay, cell line SW626): > 31.6 µM
- IC50 (Homo sapiens, SW780, read-out: IC50 in cell proliferation assay, cell line SW780 (FGFR3-BAIAP2L1)): 1.95 µM
- IC50 (Homo sapiens, SW837, read-out: IC50 in cell proliferation assay, cell line SW837): 3.48 µM
- IC50 (Homo sapiens, SW872, read-out: IC50 in cell proliferation assay, cell line SW872 (BRAF p.V600E)): 5.78 µM
- IC50 (Homo sapiens, SW900, read-out: IC50 in cell proliferation assay, cell line SW900): 5.03 µM
- IC50 (Homo sapiens, SW948, read-out: IC50 in cell proliferation assay, cell line SW948): 3.92 µM
- IC50 (Homo sapiens, SW982, read-out: IC50 in cell proliferation assay, cell line SW982 (BRAF p.V600E)): 3.57 µM
- IC50 (Homo sapiens, SW-620, read-out: IC50 in cell proliferation assay, cell line SW620): 2.62 µM
- IC50 (Homo sapiens, T98G, read-out: IC50 in cell proliferation assay, cell line T98G): 2.69 µM
- IC50 (Homo sapiens, TCC-SUP, read-out: IC50 in cell proliferation assay, cell line TCCSUP): 3.13 µM
- IC50 (Homo sapiens, THP-1, read-out: IC50 in cell proliferation assay, cell line THP-1): > 31.6 µM
- IC50 (Homo sapiens, U2OS, read-out: IC50 in cell proliferation assay, cell line U2OS): 4.78 µM
- IC50 (Homo sapiens, U-87 MG, read-out: IC50 in cell proliferation assay, cell line U-87MG ATCC): > 31.6 µM
- IC50 (Homo sapiens, U-118-MG, read-out: IC50 in cell proliferation assay, cell line U-118MG): 6.34 µM
- IC50 (Homo sapiens, UMUC3, read-out: IC50 in cell proliferation assay, cell line UM-UC-3): 1.3 µM
- IC50 (Hs766T, read-out: IC50 in cell proliferation assay, Hs 766T cell line): 4.97 µM
- IC50 (L-82, read-out: IC50 in cell proliferation assay, L-82 cell line (NPM1-ALK)): 5.23 µM
- IC50 (Rh30, read-out: IC50 in cell proliferation assay, cell line Rh30): 4.03 µM
- IC50 (read-out: IC50 in cell proliferation assay, 11-18 cell line (EGFR p.L858R)): 4.08 µM
- IC50 (read-out: IC50 in cell proliferation assay, Hs 852.T cell line): 5.9 µM
- IC50 (read-out: IC50 in cell proliferation assay, JAR cell line): 4.4 µM
- IC50 (read-out: IC50 in cell proliferation assay, cell line 5637): 4.53 µM
- IC50 (read-out: IC50 in cell proliferation assay, cell line A-388): 9.59 µM
- IC50 (read-out: IC50 in cell proliferation assay, cell line DB): 3.37 µM
- IC50 (read-out: IC50 in cell proliferation assay, cell line DEL (NPM1-ALK)): 3.36 µM
- IC50 (read-out: IC50 in cell proliferation assay, cell line ES-2 (BRAF p.V600E)): > 31.6 µM
- IC50 (read-out: IC50 in cell proliferation assay, cell line PA-1): 1.82 µM
- IC50 (read-out: IC50 in cell proliferation assay, cell line PC-3): 3.85 µM
- IC50 (read-out: IC50 in cell proliferation assay, cell line RD): 6.94 µM
- IC50 (read-out: IC50 in cell proliferation assay, cell line RKO (BRAF p.V600E)): 5.12 µM
- IC50 (read-out: IC50 in cell proliferation assay, cell line RL): 2.06 µM
- IC50 (read-out: IC50 in cell proliferation assay, cell line RT-4 (FGFR3-TACC3)): 1.38 µM
- IC50 (read-out: IC50 in cell proliferation assay, cell line SR (NPM1-ALK)): 2.58 µM
- IC50 (read-out: IC50 in cell proliferation assay, cell line T24): 5.15 µM
- IC50 (read-out: IC50 in cell proliferation assay, cell line TT (RET p.C634W)): 0.019 µM
- IC50 (read-out: IC50 in cell proliferation assay, cell line VA-ES-BJ): 2.79 µM
SMILES: COc1ccc(CN2C3CC2CN(c2ccc(-c4cc(OCC(C)(C)O)cn5ncc(C#N)c45)cn2)C3)cn1 [selpercatinib]
